What was measured:
blackgrass [1] = test: Test C preemergence; type: in vivo, Alopecurus myosuroides
Outline: (§1)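 Visual injury score, 0–100 (100 = complete control), taken 10 days after treatment relative to untreated controls. Pre: directed spray onto soil over sown seeds. Post: foliar spray at one- to two-leaf stage, 2–10 cm. Solvent/surfactant formulation; loam–sand soil; greenhouse.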

galium = test: Test C postemergence; type: in vivo, Galium aparine; conditions: 10 days, 0 to 100 scale (0 no effect, 100 complete control)
Outline: as §1

barnyardgrass [2] = test: Test C preemergence; type: in vivo, Echinochloa crusgalli
Outline: as §1

soybean [3] = test: Test C preemergence; type: in vivo, Glycine max
Outline: as §1

wheat [4] = test: Test C preemergence; type: in vivo, Triticum aestivum
Outline: as §1

ragweed [5] = test: Test C preemergence; type: in vivo, Ambrosia artemisiifolia
Outline: as §1

sedge, umbrella = test: Test D flooded paddy test; type: in vivo, Cyperus difformis; conditions: 250 g ai/ha, applied to paddy water, visual rating after 13 to 14 days, scale 0 to 100 (0 no effect, 100 complete control)
Outline: (§2)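 Visual ratings from 0, meaning no effect, to 100, meaning complete control, were assigned against untreated controls 13 to 14 days after compounds were added to the floodwater of pots kept 3 cm deep, with plants at the 2-leaf stage.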

rice = test: Test D flooded paddy test; type: in vivo, Oryza sativa; conditions: 250 g ai/ha, applied to paddy water, visual rating after 13 to 14 days, scale 0 to 100 (0 no effect, 100 complete control)
Outline: as §2

wheat [6] = test: Test C postemergence; type: in vivo, Triticum aestivum; conditions: 10 days, 0 to 100 scale (0 no effect, 100 complete control)
Outline: as §1

blackgrass [7] = test: Test C postemergence; type: in vivo, Alopecurus myosuroides; conditions: 10 days, 0 to 100 scale (0 no effect, 100 complete control)
Outline: as §1

pigweed, palmer [8] = test: Test C preemergence; type: in vivo, Amaranthus palmeri
Outline: as §1

ryegrass, Italian [9] = test: Test C preemergence; type: in vivo, Lolium multiflorum
Outline: as §1

ragweed [10] = test: Test C postemergence; type: in vivo, Ambrosia artemisiifolia; conditions: 10 days, 0 to 100 scale (0 no effect, 100 complete control)
Outline: as §1

horseweed = test: Test C postemergence; type: in vivo, Erigeron canadensis; conditions: 10 days, 0 to 100 scale (0 no effect, 100 complete control)
Outline: as §1

ducksalad = test: Test D flooded paddy test; type: in vivo, Heteranthera limosa; conditions: 250 g ai/ha, applied to paddy water, visual rating after 13 to 14 days, scale 0 to 100 (0 no effect, 100 complete control)
Outline: as §2

ryegrass, Italian [11] = test: Test C postemergence; type: in vivo, Lolium multiflorum; conditions: 10 days, 0 to 100 scale (0 no effect, 100 complete control)
Outline: as §1

kochia [12] = test: Test C postemergence; type: in vivo, Bassia scoparia; conditions: 10 days, 0 to 100 scale (0 no effect, 100 complete control)
Outline: as §1

foxtail, giant [13] = test: Test C preemergence; type: in vivo, Setaria faberi
Outline: as §1

soybean [14] = test: Test C postemergence; type: in vivo, Glycine max; conditions: 10 days, 0 to 100 scale (0 no effect, 100 complete control)
Outline: as §1

corn [15] = test: Test C postemergence; type: in vivo, Zea mays; conditions: 10 days, 0 to 100 scale (0 no effect, 100 complete control)
Outline: as §1

corn [16] = test: Test C preemergence; type: in vivo, Zea mays
Outline: as §1

barnyardgrass [17] = test: Test D flooded paddy test; type: in vivo, Echinochloa crus-galli; conditions: 250 g ai/ha, applied to paddy water, visual rating after 13 to 14 days, scale 0 to 100 (0 no effect, 100 complete control)
Outline: as §2

oat, wild [18] = test: Test C postemergence; type: in vivo, Avena fatua; conditions: 10 days, 0 to 100 scale (0 no effect, 100 complete control)
Outline: as §1

pigweed, palmer [19] = test: Test C postemergence; type: in vivo, Amaranthus palmeri; conditions: 10 days, 0 to 100 scale (0 no effect, 100 complete control)
Outline: as §1

oat, wild [20] = test: Test C preemergence; type: in vivo, Avena fatua
Outline: as §1

foxtail, giant [21] = test: Test C postemergence; type: in vivo, Setaria faberi; conditions: 10 days, 0 to 100 scale (0 no effect, 100 complete control)
Outline: as §1

barnyardgrass [22] = test: Test C postemergence; type: in vivo, Echinochloa crusgalli; conditions: 10 days, 0 to 100 scale (0 no effect, 100 complete control)
Outline: as §1

kochia [23] = test: Test C preemergence; type: in vivo, Bassia scoparia
Outline: as §1

[24] = 500 g ai/ha, preemergence, 0 to 100 scale (0 no effect, 100 complete control)
[25] = Preemergence, 125 g ai/ha, 0 to 100 scale, 0 no effect, 100 complete control

With `CCc1ncn(-c2cccc(C(=O)N3CC(C(F)(F)F)Oc4c(Cl)cccc43)c2)n1` (stereo not shown) [Compound 345] the “Blackgrass plant response rating” value (blackgrass [1]; [24]) was 90, the “Plant response rating, Blackgrass” value (blackgrass [1]; [25]) was 80 and the “Plant response rating, Galium” value (galium; 500 g ai/ha, postemergence) was 100. For the same compound, the “Plant response rating, Galium” value (galium; Postemergence, 125 g ai/ha) was 100, the “Barnyardgrass plant response rating” value (barnyardgrass [2]; [24]) was 100 and the “Plant response rating, Barnyardgrass” value (barnyardgrass [2]; [25]) was 60. The “Soybean plant response rating” value (soybean [3]; [24]) was 100, the “Plant response rating, Soybean” value (soybean [3]; [25]) was 30 and the “Wheat plant response rating” value (wheat [4]; [24]) was 10. For the same compound, the “Plant response rating, Wheat” value (wheat [4]; [25]) was 0, the “Ragweed plant response rating” value (ragweed [5]; [24]) was 0 and the “Plant response rating, Ragweed” value (ragweed [5]; [25]) was 0. For the same compound, the “Plant response rating, Sedge, Umbrella (Flood)” value (sedge, umbrella) was 60, the “Plant response rating, Rice (Flood)” value (rice) was 10 and the “Plant response rating, Wheat” value (wheat [6]; 500 g ai/ha, postemergence) was 30. For the same compound, the “Plant response rating, Wheat” value (wheat [6]; Postemergence, 125 g ai/ha) was 20, the “Plant response rating, Blackgrass” value (blackgrass [7]; 500 g ai/ha, postemergence) was 90 and the “Plant response rating, Blackgrass” value (blackgrass [7]; Postemergence, 125 g ai/ha) was 50. For the same compound, the “Pigweed, Palmer plant response rating” value (pigweed, palmer [8]; [24]) was 100, the “Plant response rating, Pigweed, Palmer” value (pigweed, palmer [8]; [25]) was 100 and the “Ryegrass, Italian plant response rating” value (ryegrass, Italian [9]; [24]) was 90. For the same compound, the “Plant response rating, Ryegrass, Italian” value (ryegrass, Italian [9]; [25]) was 80, the “Plant response rating, Ragweed” value (ragweed [10]; 500 g ai/ha, postemergence) was 60 and the “Plant response rating, Ragweed” value (ragweed [10]; Postemergence, 125 g ai/ha) was 40. The “Plant response rating, Horseweed” value (horseweed; 500 g ai/ha, postemergence) was 30, the “Plant response rating, Horseweed” value (horseweed; Postemergence, 125 g ai/ha) was 0 and the “Plant response rating, Ducksalad (Flood)” value (ducksalad) was 65. The “Plant response rating, Ryegrass, Italian” value (ryegrass, Italian [11]; 500 g ai/ha, postemergence) was 80, the “Plant response rating, Ryegrass, Italian” value (ryegrass, Italian [11]; Postemergence, 125 g ai/ha) was 60 and the “Plant response rating, Kochia” value (kochia [12]; 500 g ai/ha, postemergence) was 90. The “Plant response rating, Kochia” value (kochia [12]; Postemergence, 125 g ai/ha) was 80, the “Foxtail, Giant plant response rating” value (foxtail, giant [13]; [24]) was 100 and the “Plant response rating, Foxtail, Giant” value (foxtail, giant [13]; [25]) was 90. For the same compound, the “Plant response rating, Soybean” value (soybean [14]; 500 g ai/ha, postemergence) was 100, the “Plant response rating, Soybean” value (soybean [14]; Postemergence, 125 g ai/ha) was 100 and the “Plant response rating, Corn” value (corn [15]; 500 g ai/ha, postemergence) was 80. For the same compound, the “Plant response rating, Corn” value (corn [15]; Postemergence, 125 g ai/ha) was 30, the “Corn plant response rating” value (corn [16]; [24]) was 30 and the “Plant response rating, Corn” value (corn [16]; [25]) was 10. The “Plant response rating, Barnyardgrass (Flood)” value (barnyardgrass [17]) was 40, the “Plant response rating, Oat, Wild” value (oat, wild [18]; 500 g ai/ha, postemergence) was 30 and the “Plant response rating, Oat, Wild” value (oat, wild [18]; Postemergence, 125 g ai/ha) was 20. For the same compound, the “Plant response rating, Pigweed, Palmer” value (pigweed, palmer [19]; 500 g ai/ha, postemergence) was 80, the “Plant response rating, Pigweed, Palmer” value (pigweed, palmer [19]; Postemergence, 125 g ai/ha) was 60 and the “Oat, Wild plant response rating” value (oat, wild [20]; [24]) was 80. For the same compound, the “Plant response rating, Oat, Wild” value (oat, wild [20]; [25]) was 10, the “Plant response rating, Foxtail, Giant” value (foxtail, giant [21]; 500 g ai/ha, postemergence) was 90 and the “Plant response rating, Foxtail, Giant” value (foxtail, giant [21]; Postemergence, 125 g ai/ha) was 60. The “Plant response rating, Barnyardgrass” value (barnyardgrass [22]; 500 g ai/ha, postemergence) was 60, the “Plant response rating, Barnyardgrass” value (barnyardgrass [22]; Postemergence, 125 g ai/ha) was 30 and the “Kochia plant response rating” value (kochia [23]; [24]) was 100. For the same compound, the “Plant response rating, Kochia” value (kochia [23]; [25]) was 50.
